Test results: patent US10731221B2, “Diagnosing IDH1 related subgroups and treatment of cancer” (Dignity Health, priority 2009, dated 2020)

What was measured:
[1] = system: GBM, AKT SL (secondary-like) subtype; assay: Kaplan Meier survival of TCGA GBM patients receiving or not receiving BCNU and/or CCNU, by AKT subgroup; assay type: in vivo, human; settings: for survival advantage: Secondary-Like patients, CCNU/BCNU; for median survival: TCGA SL patients treated with BCNU or CCNU (vs. other treatments), p=0.03 after correcting for age, log rank; for sensitivity of patients in the SL subgroup: TCGA SL subgroup
Source text: FIG. 5 depicts, in accordance with various embodiments of the invention, evidence that SL subtype (AKT subgroup 5) patients are sensitive to alkylating agents BCNU and CCNU. Kaplan Meier survival curves for TCGA patients receiving (solid line) or not receiving (dashed line) alkylating agent (BCNU and/or CCNU) by subgroup. p=0.03 after correcting for age (SL subtype; log rank). n=6 and 16 for SL patients receiving or not receiving BCNU/CCNU, respectively.
The discovery dataset (GBM195) consisted of 181 GBM (WHO grade IV astrocytoma; (159 primary and 22 recurrent) from 3 datasets, [4], [21] and 14 non-neoplastic samples from 2 sources: (1) six samples from patients undergoing temporal lobe epilepsy surgery and (2) eight samples from autopsy specimens of cerebral cortex from donors with no history of neurological disorders obtained from the National Neurological Research Brain Bank (Los Angeles, Calif.). Two datasets are in GEO (GSE4271, GSE4412) and the third has been submitted. Table 1 lists GEO ID's and clinical information for GBM195 tumors. Tissue collection and processing, pathological review, and microarray analysis for the discovery dataset (GBM195) has been described elsewhere ([3] Nigro et al. 2005, [4] Phillips et a. 2006, and [21] Freije et al. 2004, which are incorporated herein by reference in their entirety as though fully set forth.) The validation dataset consisted of 583 samples; 573 GBM (16 recurrent and 3 secondary) and 10 non-neoplastic samples from The Cancer Genome Atlas (TCGA). Samples were collected and processed as described ([5] Atlas TCG 2008, which is incorporated herein by reference in its entirety as though fully set forth.). IRB or Committee on Human Research approval was obtained for samples used in the discovery and validation datasets as described, [4], [10], [21].
Differences between one subgroup and the rest were assessed using the F test for […] and the likelihood ratio test for categorical variables. The Bonferroni method was applied to correct for multiple hypotheses. The inventors applied the Tukey HSD test to find pairwise differences between groups and correct for multiple comparisons. Survival differences between subgroups were assessed using the Chi-squared test. Age was added to build a multivariate Cox model. For survival comparisons of BCNU/CCNU treatment between subgroups there were not enough observations to correct for age. After deleting all observations younger than 45, survival was no longer related to age. Significance was then determined using log rank. The Pearson goodness-of-fit test was used to assess the null hypothesis that proportions of G-CIMP tumors by subgroup and recurrent tumors by subgroup are equal to the proportions for all tumors by subgroup. P-values for these tests were calculated by Monte Carlo simulation since the counts of tumors by subgroup were too small to apply the large sample chi-square approximation.
Since AKT influences response to chemotherapy, while not wishing to be bound by any theory, the inventors believe AKT subgroups are predictive markers. Indeed, TCGA SL patients treated with BCNU or CCNU had longer median survival than those receiving other treatments (FIG. 5; median survival=5.8 vs. 1.05 years; p=0.03 after correcting for age; log rank). […] This finding indicates patients in the SL subgroup are sensitive to BCNU and CCNU.

[2] = system: Glioblastoma AKT subgroups (Mesenchymal, Secondary-Like); assay: Kaplan Meier survival of TCGA patients receiving more vs. less temozolomide, by AKT subgroup; assay type: in vivo, human
Source text: FIG. 17 depicts, in accordance with various embodiments of the invention, evidence that Mesenchymal patients benefit from temozolomide. Kaplan Meier survival curves were plotted within each subgroup for TCGA patients receiving more (≥3 cycles; red) vs. less (<3 cycles; black) temozolomide. […] Median survival was 0.6 years greater for Mesenchymal patients treated with more temozolomide (1.8 years) vs. less temozolomide (1.2 years); p=0.01 log rank; not age adjusted.
We plotted Kaplan Meier survival curves for patients treated with more vs. less TMZ in each AKT subgroup (FIG. 17). Since most TCGA patients received some TMZ, it was not possible to plot survival curves for patients treated with and without the drug. Instead, we compared survival in 2 treatment arms, those receiving more (≥3) vs. less (<3) cycles.
There was a tendency for patients who received more TMZ to not have received a nitrosourea. […] Without wishing to be bound by any particular theory, this may underlie the worse survival of patients receiving more TMZ in the Secondary-Like subgroup.

Structure (SMILES)	survival advantage [1]	median survival [1]	sensitivity of patients in the SL subgroup [1]	median survival ([2]; less temozolomide (<3 cycles))	median survival ([2]; more temozolomide (≥3 cycles), p=0.01 log rank, not age adjusted)	Median survival difference, more vs. less temozolomide ([2]; ≥3 vs. <3 cycles)
O=NN(CCCl)C(=O)NCCCl [BCNU, carmustine]	4.5 year	5.8 years	sensitive			
Cn1nnc2c(C(N)=O)ncn2c1=O [temozolomide]				1.2 years	1.8 years	0.6 years
O=NN(CCCl)C(=O)NC1CCCCC1 [CCNU, lomustine]	4.5 year	5.8 years	sensitive			
